# Reference: patent publication US10293055B2, “Acetylenedicarboxyl linkers and their uses in specific conjugation of a cell-binding molecule” (SUZHOU M-CONJ BIOTECH CO., LTD., priority 2015, dated 2019)
# Tests used:
# [1] = tested on: human gastric carcinoma N-87 cell line tumor xenograft; conditions: one injection
# Experimental: Five-week-old female BALB/c Nude mice (24 animals) were inoculated subcutaneously in the area under the right shoulder with N-87 carcinoma cells (5×10^6 cells/mouse) in 0.1 mL of serum-free medium. The tumors were grown for 8 days to an average size of 130 mm^3. The animals were then randomly divided into 4 groups (6 animals per group). The first group of mice served as the control group and was treated with the phosphate-buffered saline vehicle. […] Three dimensions of the tumor were measured every 4 days and the tumor volumes were calculated using the formula tumor volume=½ (length×width×height). The weight of the animals was also measured at the same time. A mouse was sacrificed when any one of the following criteria was met: (1) loss of body weight of more than 20% from pretreatment weight, (2) tumor volume larger than 1500 mm^3, (3) too sick to reach food and water, or (4) skin necrosis. A mouse was considered to be tumor-free if no tumor was palpable.
# [2] = tested on: HL-60, a human promyelocytic leukemia cell line; conditions: read-out: IC50 (nM) HL60 cell (Ag+); MTT, 120 hours incubation
# Experimental: (§1) The cell lines used in the cytotoxicity assays were HL-60, a human promyelocytic leukemia cell line; NCI-N87, a human gastric carcinoma cell line; BT-474, a human invasive ductal carcinoma cell line; and SKOV3, a human ovarian carcinoma cell line. For HL-60, NCI-N87, and BT-474 cells, the cells were grown in RPMI-1640 with 10% FBS. For SKOV3 cells, the cells were grown in McCoy's 5A Medium with 10% FBS. To run the assay, the cells (180 μl, 6000 cells) were added to each well in a 96-well plate and incubated for 24 hours at 37° C. with 5% CO2. Next, the cells were treated with test compounds (20 μl) at various concentrations in appropriate cell culture medium (total volume, 0.2 mL). The control wells contain cells and the medium but lack the test compounds. The plates were incubated for 120 hours at 37° C. with 5% CO2. MTT (5 mg/ml) was then added to the wells (20 μl) and the plates were incubated for 1.5 hr at 37° C. The medium was carefully removed and DMSO (180 μl) was added afterward. After it was shaken for 15 min, the absorbance was measured at 490 nm and 570 nm with a reference filter of 620 nm. The inhibition % was calculated according to the following equation: inhibition %=[1-(assay-blank)/(control-blank)]×100.
# [3] = tested on: SKOV3, a human ovarian carcinoma cell line
# Experimental: as §1
# [4] = tested on: NCI-N87, a human gastric carcinoma cell line
# Experimental: as §1
substance,measurement,setting,value
T-DM1,Animals with no tumor measurable,"[1]; 5 mg/Kg intravenously, 6 animals per group",2/6
same,Anti-tumor effect (FIG. 11),"[1]; 5 mg/kg, i.v.",did not completely eliminate the tumor
same,Duration of tumor growth inhibition,"[1]; 5 mg/kg, i.v.",44 days
same,IC50,[2],> 15 nM
same,Specificity for SK-OV-3 cell,[3]; IC50 HL60 / IC50 SK-OV-3,over 78
same,IC50,"[3]; read-out: IC50 (nM) SK-OV-3 cell (Ag+), MTT, 120 hours incubation",0.191 nM
same,Specificity for N87 cell,[4]; IC50 HL60 / IC50 N87,over 55
same,IC50,"[4]; read-out: IC50 (nM) N87 cell (Ag+), MTT, 120 hours incubation",0.27 nM
